Target: T1, CD44 (Homo sapiens, UniProt P16070)
T1 construct: endogenous in cells
Assay: CD44 shedding induction by synthetic oligosaccharide in a cancer cell
Format: cell-based
Conditions: electrophoresis (FIG. 9) and CD44 shedding index with the state without stimulation set to 1 (FIG. 10)
Protocol: FIG. 8 is a flowchart showing the outline of the test method performed in Example 4.
FIG. 9 is a copy of the electrophoresis photograph in which the electrophoresis result of the test performed in Example 4 is shown.
About the compound of the formula (20) and (21) obtained in Example 1, a CD44 shedding induction ability in a cancer cell was evaluated according to the test method shown in FIG. 8.

T1 sequence (P16070 21-742, species assumed): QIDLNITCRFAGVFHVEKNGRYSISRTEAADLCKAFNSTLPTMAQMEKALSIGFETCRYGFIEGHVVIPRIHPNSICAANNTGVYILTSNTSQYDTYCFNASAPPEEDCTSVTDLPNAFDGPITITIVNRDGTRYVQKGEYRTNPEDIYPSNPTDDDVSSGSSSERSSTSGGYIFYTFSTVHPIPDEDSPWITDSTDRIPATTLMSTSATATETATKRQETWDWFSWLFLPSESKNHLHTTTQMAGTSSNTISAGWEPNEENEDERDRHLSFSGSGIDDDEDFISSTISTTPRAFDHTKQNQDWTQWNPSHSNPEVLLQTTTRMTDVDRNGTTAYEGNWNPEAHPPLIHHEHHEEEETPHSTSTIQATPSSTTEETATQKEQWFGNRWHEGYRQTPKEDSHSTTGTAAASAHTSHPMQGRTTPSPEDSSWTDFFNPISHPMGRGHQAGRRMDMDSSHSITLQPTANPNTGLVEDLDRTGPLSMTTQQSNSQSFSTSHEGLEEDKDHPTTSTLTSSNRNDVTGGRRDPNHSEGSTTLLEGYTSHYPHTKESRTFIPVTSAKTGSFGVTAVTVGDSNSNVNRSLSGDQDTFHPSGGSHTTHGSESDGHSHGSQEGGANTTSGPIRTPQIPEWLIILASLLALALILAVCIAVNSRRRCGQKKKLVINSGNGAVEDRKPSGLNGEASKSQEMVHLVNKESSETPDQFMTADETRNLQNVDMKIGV

CD44 shedding induction ability	Substance
induced more strongly	β-D-GalNAc(4,6-di-OSO3Na)-(1->[4]-β-D-GlcA-(1->3)-β-D-GalNAc(4,6-di-OSO3Na)-(1->24)-β-D-GlcA-(1->OMP [compound of the formula (21)]
induced the shedding of a CD44	β-D-GalNAc-(1->[4]-β-D-GlcA-(1->3)-β-D-GalNAc-(1->)24)-β-D-GlcA-(1->OMP [compound of the formula (20)]

— patent US20070219161A1, “Preparation Process Of Oligoglycosaminoglycan, And Reducing End Glucuronic Acid Type Oligochondroitin Sulfate And Pharmaceutical Composition Comprising The Same” (priority 2004, published 2007)
